# The source made the active and inactive calls.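 Rule for the calls: active = compounds whose EC50 for boosting single-cell stem cell survival is at or below a set limit; inactive = the rest.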
# Tested on: human iPSC single-cell survival, ATP luminescence
# Assay: human iPSC survival promotion after dissociation – cell-based, luminescence, dose response (AID 623861)
row,SMILES,EC50
1,O=C(CNC(=O)c1ccccc1)OC(C(=O)Nc1cc(C(F)(F)F)ccc1Cl)c1ccccc1 (stereo not drawn),> 80 µM (inactive)
2,O=C1NCCN1c1ccccc1,> 80 µM (inactive)
3,O=C(C(O)c1ccc(Br)cc1)N1CCC(Nc2ccc3[nH]ncc3c2)CC1 (stereo not drawn),6.68 µM
4,CCS(=O)(=O)c1ncc(Cl)c(C(=O)Nc2ccc(S(=O)(=O)N(C)c3ccccc3)cc2)n1,> 80 µM (inactive)
5,CCOC(=O)c1ccc(NC(=O)c2nc(S(=O)(=O)Cc3ccccc3)ncc2Cl)cc1,> 80 µM (inactive)
6,CC(OC(=O)c1ccc(S(C)(=O)=O)c([N+](=O)[O-])c1)C(=O)NC1C2CC3CC(C2)CC1C3 (stereo not drawn),> 80 µM (inactive)
7,CCC(OC(=O)c1ccc(S(C)(=O)=O)c([N+](=O)[O-])c1)C(=O)NC1C2CC3CC(C2)CC1C3 (stereo not drawn),> 80 µM (inactive)
8,NC(=O)CC(NC(=O)c1ccccc1)C(=O)O (stereo not drawn),> 80 µM (inactive)
9,C[C@@H]1CN([C@@H](C)CO)C(=O)c2cc(Br)cnc2O[C@H]1CN(C)C(=O)C1CC1,> 80 µM (inactive)
10,NC(=O)c1ccc(Nc2nc(C(N)c3ccccc3Cl)cs2)cc1 (stereo not drawn),39.7 µM (inactive)
11,CNc1nc(Cl)nc(NC(C)(C)C)n1,> 80 µM (inactive)
12,CCOCCCNC(=O)/C(C#N)=C/c1ccc([N+](=O)[O-])o1,53.1 µM (inactive)
13,O=C(Nc1nc(-c2ccncc2)cs1)C1COc2ccccc2O1 (stereo not drawn),3.19 µM
14,Cc1sc(-c2ccccn2)nc1OC(=O)c1ccc(Cl)c(Cl)c1,> 80 µM (inactive)
15,CN1C2CCC1/C(=C/c1ccccn1)C(=O)/C2=C\c1ccccn1,6.32 µM
16,COc1ccccc1Sc1nc(-c2ccccn2)ncc1OC,40.8 µM (inactive)
17,C=C(C)[C@@]12OC3(c4ccccc4)O[C@@H]1C1[C@@H]4O[C@]4(CO)[C@@H](O)[C@]4(O)C(=O)C(C)=C[C@H]4[C@@]1(O3)[C@H](C)[C@H]2OC(=O)/C=C/C=C/c1ccccc1 (stereo partly drawn),< 0.156 µM
18,CC1C/C(=C/c2ccncc2)C(=O)/C(=C/c2ccncc2)C1 (stereo not drawn),12.9 µM
19,CN(C(=O)COC(=O)c1nc(Cl)c(Cl)c(Cl)c1Cl)C1CCS(=O)(=O)C1 (stereo not drawn),31.1 µM (inactive)
20,Cn1cnnc1SCC(=O)c1ccc2c(c1)OCO2,> 80 µM (inactive)
21,Cc1ccc2c(COC(=O)C3=COCCO3)cc(=O)oc2c1,> 80 µM (inactive)
22,O=C(Nc1ccncc1)c1c(F)c(F)c(F)c(F)c1F,5.93 µM
23,O=C(COC(=O)c1ccccc1C(=O)c1ccc(Cl)c([N+](=O)[O-])c1)NC1CC1,> 80 µM (inactive)
24,C=C1C(=O)O[C@@H]2C[C@@H](C)[C@@H]3C=CC(=O)[C@@]3(C)[C@@H](O)[C@H]12,7.88 µM

row,SMILES,EC50
1,CC(OC(=O)c1cccc(S(=O)(=O)N2CCN(C)CC2)c1)C(=O)Nc1ccc(C(N)=O)cc1 (stereo not drawn),30.6 µM (inactive)
2,Cc1ccc([C@@H]2C[C@H]3[C@@H](CN2S(=O)(=O)c2ccc(Cl)cc2)C(=O)C[C@@H](c2ccc(C)cc2)N3S(=O)(=O)c2ccc(Cl)cc2)cc1,> 80 µM (inactive)
3,Oc1ccc(-c2onc(C(F)(F)F)c2-c2cscn2)c(O)c1,> 80 µM (inactive)
4,O=c1cc(-c2ccccc2)nc2nc(SCc3ccccc3)[nH]n12,> 80 µM (inactive)
5,Cc1ccsc1C(=O)OCC(=O)Nc1sccc1C(N)=O,> 80 µM (inactive)
6,C[C@@H](NC(=O)[C@@H]1Cc2ccccc2CN1)C(=O)Nc1ccc2c(c1)OCO2,> 80 µM (inactive)
7,COc1ccc(CC(=O)N2N=C(c3ccncc3)CC2(O)C(F)(F)F)cc1 (stereo not drawn),> 80 µM (inactive)
8,COc1ccc(CN(C)CCCn2cnc3c(OC)ncnc32)cc1OC,> 80 µM (inactive)
9,O=C(COc1ccccc1)Nc1nc(-c2ccncc2)cs1,15.9 µM
10,COc1ccc(C2=CC(=O)C[C@H](c3ccc(OC)c(OC)c3)C2)cn1,> 80 µM (inactive)
11,O=C1CCC2(C(=O)O)Sc3ccccc3N12 (stereo not drawn),> 80 µM (inactive)
12,CN(Cc1ccc(C(F)(F)F)cc1)C(=O)[C@H]1O[C@@H](n2cnc3c(N)ncnc32)[C@H](O)[C@@H]1O,26.1 µM (inactive)
13,COC(=O)c1ccc(C(=O)OC)c(NC(=O)CSc2cccc[n+]2[O-])c1,> 80 µM (inactive)
14,CCCOC(=O)Oc1ccc2c(=O)c(Oc3cc(C)cc(C)c3)coc2c1,> 80 µM (inactive)
15,COc1ccc(S(=O)(=O)Nc2ccc3c(c2)C(=O)N([C@H](C)CO)C[C@H](C)[C@@H](CN(C)C(=O)NC2CCCCC2)O3)cc1,> 80 µM (inactive)
16,OC(c1ccc(Cl)cc1)c1ncc(-c2cccc(C(F)(F)F)c2)[nH]1 (stereo not drawn),> 80 µM (inactive)
17,COc1ccc(N2C(=O)CC(Sc3nccc(C)n3)C2=O)c(OC)c1 (stereo not drawn),> 80 µM (inactive)
18,O=C(NCC1CC1)c1ccc(-c2cn[nH]c2)c2ccoc12,13.1 µM
19,COc1c(Cl)cnn(-c2ccc(C)cc2)c1=O,> 80 µM (inactive)
20,CCSc1cnn(-c2ccccc2)c(=O)c1Cl,> 80 µM (inactive)
21,CC1CCN(C(=O)c2[nH]cnc2C(=O)NCC(=O)OC(C)(C)C)CC1,> 80 µM (inactive)
22,c1ccc(CN2CCN(c3nc(NCc4ccco4)c4ccccc4n3)CC2)cc1,1.05 µM
23,Cn1c(Cl)c(/C=N/OC(=O)c2ccc(Cl)cc2)c2ccccc21,> 80 µM (inactive)
24,CCc1c(C(=O)Nc2ccc(OC)cc2)[nH]c(C)c1C(C)=O,> 80 µM (inactive)
